From paper PMC4872110 (Nucleic Acids Research, 2016) come the findings set out here.

Data set [1] concerns the target T1, SsTsr3 (Saccharolobus solfataricus, UniProt Q9UWV6).
T1 sequence (Q9UWV6 1-166): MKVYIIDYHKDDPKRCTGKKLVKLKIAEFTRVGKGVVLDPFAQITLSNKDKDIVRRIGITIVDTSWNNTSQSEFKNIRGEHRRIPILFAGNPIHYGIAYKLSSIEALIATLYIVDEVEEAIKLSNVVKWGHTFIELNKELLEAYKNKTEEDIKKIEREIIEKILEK
Briefly: tryptophan fluorescence quenching. The class given is binding.

The next data set addresses VdTsr3 (Vulcanisaeta distributa, UniProt E1QU22). The settings on record: co-purified endogenous E. coli SAM.
Data set [2] concerns the target SsTsr3 (Saccharolobus solfataricus, UniProt Q9UWV6, T17A). As to the kind of experiment: biochemical.
In data set [3] the target is SsTsr3 (Saccharolobus solfataricus, UniProt Q9UWV6, D63A). Briefly: biochemical.
Data set [4] deals with SsTsr3 (Saccharolobus solfataricus, UniProt Q9UWV6, T17D). As to the kind of experiment: biochemical.
The target in data set [5] is T2, SsTsr3 (Sulfolobus solfataricus, UniProt Q9UWV6 1-166).
T2 sequence: T1 sequence (Q9UWV6 1-166)
As to the kind of experiment: fluorescence anisotropy.

Chain of VdTsr3 (E1QU22 whole entry): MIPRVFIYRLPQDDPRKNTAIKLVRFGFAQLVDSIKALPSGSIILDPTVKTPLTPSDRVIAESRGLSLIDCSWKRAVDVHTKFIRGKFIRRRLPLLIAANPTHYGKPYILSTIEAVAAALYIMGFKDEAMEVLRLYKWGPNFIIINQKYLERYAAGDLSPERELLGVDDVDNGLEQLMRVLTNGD
Chain of SsTsr3 (Saccharolobus solfataricus, UniProt Q9UWV6, T17D) (Q9UWV6 whole entry T17D): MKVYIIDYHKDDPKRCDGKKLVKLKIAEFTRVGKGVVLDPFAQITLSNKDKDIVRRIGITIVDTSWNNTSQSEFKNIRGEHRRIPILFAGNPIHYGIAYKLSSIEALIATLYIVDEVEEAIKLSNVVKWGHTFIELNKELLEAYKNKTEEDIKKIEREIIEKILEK
Chain of SsTsr3 (Saccharolobus solfataricus, UniProt Q9UWV6, D63A) (Q9UWV6 whole entry D63A): as the sequence (Q9UWV6 whole entry T17D) above, with D17T, D63A counted along it
Chain of SsTsr3 (Saccharolobus solfataricus, UniProt Q9UWV6, T17A) (Q9UWV6 whole entry T17A): as the sequence (Q9UWV6 whole entry T17D) above, with D17A counted along it

`C[S+](CC[C@H](N)C(=O)O)C[C@H]1O[C@@H](n2cnc3c(N)ncnc32)[C@H](O)[C@@H]1O` (stereo partly drawn) [SAM]: the dissociation constant Kd amounted to 6.5 µM on SsTsr3 [1], 3900 µM on SsTsr3 [2], 11 µM at SsTsr3 [3] and 11200 µM at SsTsr3 [4]. Besides, on VdTsr3, the “X-ray crystal structure, 1.6 Å (Se-SAD)” value is “VdTsr3 was purified and crystallized in complex with endogenous (E. coli) SAM”.

Regarding UUUUUUUUU (ssRNA) [oligo-U9 RNA], the dissociation constant (Kd) with SsTsr3 [5] came out at 6 µM.
